In patent US9994570B2, “Bridged diazepane orexin receptor antagonists” (MERCK SHARP & DOHME CORP., priority 2014, dated 2018):

Tests used:
human orexin-2 receptor [1] = molecular target: T1, human orexin-2 receptor (Homo sapiens, UniProt O43614); conditions: comparison compound disclosed in U.S. Pat. No. 8,685,961; cited from earlier work
T1 construct: expressed in transfected cells; host or cells: CHO cells (grown under G418 selection)
T1 sequence (O43614 1-444): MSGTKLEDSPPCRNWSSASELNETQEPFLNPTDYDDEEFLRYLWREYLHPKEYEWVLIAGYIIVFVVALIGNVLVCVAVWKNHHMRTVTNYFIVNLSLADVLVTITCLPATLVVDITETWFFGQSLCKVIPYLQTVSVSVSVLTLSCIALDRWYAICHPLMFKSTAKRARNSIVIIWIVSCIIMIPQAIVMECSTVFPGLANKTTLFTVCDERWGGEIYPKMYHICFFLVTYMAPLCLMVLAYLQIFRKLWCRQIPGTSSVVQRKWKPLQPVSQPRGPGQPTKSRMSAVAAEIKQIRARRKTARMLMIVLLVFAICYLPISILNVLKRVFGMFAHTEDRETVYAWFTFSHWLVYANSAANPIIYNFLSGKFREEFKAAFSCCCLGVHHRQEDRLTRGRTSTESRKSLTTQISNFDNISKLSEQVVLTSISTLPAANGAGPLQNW

human orexin-2 receptor [2] = molecular target: T1, human orexin-2 receptor; assay: FLIPR Ca2+ flux assay, OX2R; format: cell-based; conditions: for IC50: CHO cells expressing the human orexin-2 receptor, agonist 70 pM Ala-6,12 orexin-A; for Fold Selective: OX1R FLIPR / OX2R FLIPR
Protocol: (§1) The utility of the compounds in accordance with the present invention as orexin receptor OX1R and/or OX2R antagonists may be readily determined without undue experimentation by methodology well known in the art, including the “FLIPR Ca^2+ Flux Assay” (Okumura et al., Biochem. Biophys. Res. Comm. 280:976-981, 2001). In a typical experiment the OX1 and OX2 receptor antagonistic activity of the compounds of the present invention was determined in accordance with the following experimental method. For intracellular calcium measurements, Chinese hamster ovary (CHO) cells expressing the rat orexin-1 receptor or the human orexin-2 receptor, are grown in Iscove's modified DMEM containing 2 mM L-glutamine, […], 1% hypoxanthine-thymidine supplement, 100 U/ml penicillin, 100 μg/ml streptomycin and 10% heat-inactivated fetal calf serum (FCS). The cells are seeded at 20,000 cells/well into Becton-Dickinson black 384-well clear bottom sterile plates coated with poly-D-lysine. All reagents were from GIBCO-Invitrogen Corp. The seeded plates are incubated overnight at 37° C. and 5% CO2. Ala-6,12 human orexin-A as the agonist is prepared as a 1 mM stock solution in 1% bovine serum albumin (BSA) and diluted in assay buffer (HBSS containing 20 mM HEPES, 0.1% BSA and 2.5 mM probenecid, pH7.4) for use in the assay at a final concentration of 70 pM. Test compounds are prepared as 10 mM stock solution in DMSO, then diluted in 384-well plates, first in DMSO, then assay buffer. On the day of the assay, cells are washed 3 times with 100 μl assay buffer and then incubated for 60 min (37° C., 5% CO2) in 60 μl assay buffer containing 1 μM Fluo-4AM ester, 0.02% pluronic acid, and 1% BSA. The dye loading solution is then aspirated and cells are washed 3 times with 100 μl assay buffer. 30 μl of that same buffer is left in each well. Within the Fluorescent Imaging Plate Reader (FLIPR, Molecular Devices), test compounds are added to the plate in a volume of 25 μl, incubated for 5 min and finally 25 μl of agonist is added. Fluorescence is measured for each well at 1 second intervals for 5 minutes and the height of each fluorescence peak is compared to the height of the fluorescence peak induced by 70 pM Ala-6,12 orexin-A with buffer in place of antagonist. For each antagonist, IC50 value (the concentration of compound needed to inhibit 50% of the agonist response) is determined. Alternatively, compound potency can be assessed by a radioligand binding assay (described in Bergman et. al. Bioorg. Med. Chem. Lett. 2008, 18, 1425-1430) in which the inhibition constant (Ki) is determined in membranes prepared from CHO cells expressing either the OX1 or OX2 receptor. The intrinsic orexin receptor antagonist activity of a compound which may be used in the present invention may be determined by these assays.

rat orexin-1 receptor = molecular target: T2, rat orexin-1 receptor (Rattus norvegicus, UniProt P56718); assay: FLIPR Ca2+ flux assay, OX1R; format: cell-based; conditions: CHO cells expressing the rat orexin-1 receptor; agonist 70 pM Ala-6,12 orexin-A
T2 construct: expressed in transfected cells; host or cells: CHO cells (grown under G418 selection)
T2 sequence (P56718 1-416): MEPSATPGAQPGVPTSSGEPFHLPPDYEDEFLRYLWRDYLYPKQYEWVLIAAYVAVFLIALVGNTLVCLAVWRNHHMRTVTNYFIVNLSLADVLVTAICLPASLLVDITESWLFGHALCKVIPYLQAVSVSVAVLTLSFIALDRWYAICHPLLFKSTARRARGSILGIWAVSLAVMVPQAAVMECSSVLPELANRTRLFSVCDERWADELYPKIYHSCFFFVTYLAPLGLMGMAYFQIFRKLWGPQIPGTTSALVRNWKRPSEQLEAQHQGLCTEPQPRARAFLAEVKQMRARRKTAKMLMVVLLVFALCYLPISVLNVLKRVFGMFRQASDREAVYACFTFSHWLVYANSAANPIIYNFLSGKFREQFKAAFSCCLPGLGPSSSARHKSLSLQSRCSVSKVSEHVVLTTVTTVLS
Protocol: as §1

Structure (SMILES) | IC50 (human orexin-2 receptor [2]) [µM] | Fold Selective (human orexin-2 receptor [2]) | IC50 (rat orexin-1 receptor) [µM] | selectivity between the orexin-1 receptor and the orexin-2 receptor (human orexin-2 receptor [1])
Cc1ccc(-n2nccn2)c(C(=O)N2CCCN(c3nc4ccccc4o3)CC2)c1 [Example B-3] |  |  |  | greater selectivity for the orexin-1 receptor than for the orexin-2 receptor
Cc1cc(C)nc(N2CC3CC2CN(C(=O)c2cccnc2-c2noc(C)n2)C3)n1 (stereo not shown) [Example 23, 6-(4,6-dimethylpyrimidin-2-yl)-3-{[2-(5-methyl-1,2,4-oxadiazol-3-yl)pyridin-3-yl]carbonyl}-3,6-diazabicyclo[3.2.1]octane] | 0.103 | >97 | > 10 | 
Cc1cc(C)nc(N2CC3CC2CN(C(=O)c2ccccc2C2CC2)C3)n1 (stereo not shown) [Example 11, 3-[(2-cyclopropylphenyl)-carbonyl]-6-(4,6-dimethylpyrimidin-2-yl)-3,6-diazabicyclo[3.2.1]octane] | 0.013 | 47 | 0.613 | 
Cc1cc(C)nc(N2CC3CC2CN(C(=O)c2cccnc2N(C)CC(F)F)C3)n1 (single isomer, unassigned) [Example 47] | 0.029 | 261 | 7.56 | 
Cc1cc(C)nc(N2CC3CC2CN(C(=O)c2nccnc2OCC(F)F)C3)n1 (stereo not shown) [Example 49, 3-{[3-[2,2-difluoroethoxy)pyrazin-2-yl]carbonyl}-6-(4,6-dimethylpyrimidin-2-yl)-3,6-diazabicyclo[3.2.1]octane] | 0.033 | 117 | 3.86 | 
Cc1cc(C)nc(N2CC3CC2CN(C(=O)c2cccnc2CC(F)(F)F)C3)n1 (stereo not shown) [Example 32, 6-(4,6-dimethylpyrimidin-2-yl)-3-{[2-(2,2,2-trifluoroethyl)pyridin-3-yl]carbonyl}-3,6-diazabicyclo[3.2.1]octane] | 0.058 | >172 | > 10 | 
Cc1cc(C)nc(N2CC3CC2CN(C(=O)c2cccnc2C2CC2)C3)n1 (stereo not shown) [Example 35, 3-[(2-cyclopropylpyridin-3-yl)carbonyl]-6-(4,6-dimethylpyrimidin-2-yl)-3,6-diazabicyclo[3.2.1]octane] | 0.047 | >213 | > 10 | 

Continued by falling IC50 (human orexin-2 receptor [2]), values first:

IC50 (human orexin-2 receptor [2]) [µM] | Fold Selective (human orexin-2 receptor [2]) | IC50 (rat orexin-1 receptor) [µM] | Structure (SMILES) | selectivity between the orexin-1 receptor and the orexin-2 receptor (human orexin-2 receptor [1])
0.117 | >85 | > 10 | COc1ccc(C(=O)N2CC3CC(C2)N(c2nc(C)cc(C)n2)C3)c(-n2nccn2)n1 (stereo not shown) [Example 30, 6-(4,6-dimethylpyrimidin-2-yl)-3-{[6-methoxy-2-(2H-1,2,3-triazol-2-yl)pyridin-3-yl]carbonyl}-3,6-diazabicyclo[3.2.1]octane] | 
0.06 | >167 | > 10 | Cc1cc(C)nc(N2CC3CC2CN(C(=O)c2nccnc2OC(C)C)C3)n1 (stereo not shown) [Example 52, 6-(4,6-dimethylpyrimidin-2-yl)-3-{[3-(1-methylethoxy)pyrazin-2-yl]carbonyl}-3,6-diazabicyclo[3.2.1]octane] | 
0.046 | 74 | 3.41 | COCc1ccccc1C(=O)N1CC2CC(C1)N(c1nc(C)cc(C)n1)C2 (stereo not shown) [Example 10, (6-(4,6-dimethylpyrimidin-2-yl)-3,6-diazabicyclo[3.2.1]octan-3-yl)(2-(methoxymethyl)phenyl)methanone] | 
0.018 | 178 | 3.21 | Cc1cc(C#N)nc(N2CC3CC2CN(C(=O)c2ccccc2OCC(F)(F)F)C3)n1 (stereo not shown) [Example 3, 6-methyl-2-(3-(2-(2,2,2-trifluoroethoxy)benzoyl)-3,6-diazabicyclo[3.2.1]octan-6-yl)pyrimidine-4-carbonitrile] | 
0.017 | 119 | 2.02 | Cc1cc(C)nc(N2CC3CC2CN(C(=O)c2ccccc2CC(F)(F)F)C3)n1 (stereo not shown) [Example 25, 6-(4,6-dimethylpyrimidin-2-yl)-3-{[2-(2,2,2-trifluoroethyl)phenyl]carbonyl}-3,6-diazabicyclo[3.2.1]octane] | 
